According to patent publication US5688821A, “Unsaturated fatty acyl derivatives of 2-aminothiazoleacetic acid and their salts as inhibitors of phospholipase A2 derived from human sources” (American Home Products Corporation, priority 1996, dated 1997):
Structures can show the parent of a compound that is named as a salt. Where two headings read alike, the source gives them in different places. Each block holds one compound with its values, some of them ahead of it.

Assays:
Human Synovial PLA2 = biological target: T1, Human Synovial PLA2 (Homo sapiens, UniProt P14555); test: Inhibition of PLA2 derived from human synovial fluid (HSF), arachidonic acid release from 3H-AA E. coli substrate; assay type: biochemical; details: for % Inhibition HSF / inhibition at 10 µM: Drug Concentration 10 μM, Example 8: average of two runs; for % Inhibition HSF: 10 µM; for inhibition at 50 µM: Drug Concentration 50 μM
T1 construct: Purified human synovial fluid; from tissue; host or cells: human synovial fluid (purified)
T1 sequence (P14555 21-144): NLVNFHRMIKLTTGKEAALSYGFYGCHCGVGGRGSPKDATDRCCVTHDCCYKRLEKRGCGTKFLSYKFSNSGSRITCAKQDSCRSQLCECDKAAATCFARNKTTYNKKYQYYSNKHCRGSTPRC
Experimental: (§1) The compounds of the invention are tested in an in vitro isolated phospholipase A2 assay to determine the ability of the test compounds to inhibit the release of arachidonic acid from an arachidonic acid-containing substrate by the action of phospholipase A enzyme from two human sources.
(§2) 1. INHIBITION OF PLA2 DERIVED FROM HUMAN PLATELETS AND HUMAN SYNOVIAL FLUID
(§3) This assay is carried out as follows:
(§4) Into a 15 mL polypropylene tube are added the following: […]
(§5) *pre-incubate at room temperature 30 min prior to substrate addition.
(§6) ^1. Prepared by adding 2 mL deionized and distilled water to 2 mL ^3 H-arachidonate labeled E. coli (lower count), to which is added 1 mL of ^3 H-arachidonate labeled E. coli (higher count) to yield a total of […] substrate (containing 1000 nmoles phospholipid, PL).
(§7) ^2 Stock 0.1M CaCl2 required for enzyme activity.
(§8) ^3 Stock 0.5M Trisma-Base. Stock 0.5M Trisma-HCl. Adjust pH to 7.5 (optimum for enzyme).
(§9) ^4 Deionized and distilled water.
(§10) ^5 Stock 10 mM prepared in dimethyl sulfoxide. Make 1:2 dilution with dimethyl sulfoxide and add 1 μL to 100 μL assay tube.
^6 Two human PLA2 enzymes are used: […]
(b) Purified human synovial fluid.
(§11) Incubate the […] reaction mixture for 10 minutes at 37° C. in a shaking water bath. The reaction is terminated by the addition of 2 mL tetrahydrofuran, followed by vortexing. NH2 columns ([…]--Analytichem International) are conditioned with 0.5 mL tetrahydrofuran followed by 0.5 mL tetrahydrofuran/water (2 mL:0.1 mL, v/v).
(§12) The sample is loaded onto the columns and slowly dram through them. The hydrolyzed arachidonic acid retained in the columns is eluted therefrom with 1 mL tetrahydrofuran/glacial acetic acid (2%). The arachidonic acid is transferred to scintillation vials and quantitated by β-counting analysis. A "total counts" sample is prepared by pipetting 25 μl, ^3 H-arachidonate E. coli directly into a scintillation vial to which is added 1 mL tetrahydrofuran. 10 mL aquasol (scintillation cocktail) is added to all samples.

Human Platelet PLA2 = biological target: T2, Human Platelet PLA2 (Homo sapiens, UniProt P14555); test: Inhibition of PLA2 derived from human platelets (HP), arachidonic acid release from 3H-AA E. coli substrate; assay type: biochemical; details: for % Inhibition HP / inhibition at 10 µM: Drug Concentration 10 μM, Example 8: average of two runs; for % Inhibition HP: 10 µM; for inhibition at 50 µM: Drug Concentration 50 μM
T2 construct: semi-purified human platelet acid extract PLA2; from tissue; host or cells: human platelets (semi-purified acid extract)
T2 sequence (P14555 21-144): T1 sequence (P14555 21-144)
Experimental: as §1, §2, §3, §4, §5, §6, §7, §8, §9, §10
^6 Two human PLA2 enzymes are used:
(a) semi-purified human platelet acid extract PLA2 (in 10 mM sodium acetate buffer, pH 4.5). Remove protein precipitate by centrifugation at about 2200 rpm for 10 minutes. […]
as §11, §12

[1] = test system: paw edema induced by the exogenous administration of PLA2; test: Murine paw edema assay (edema induced by exogenous PLA2); assay type: in vivo, mouse (male CD-1); details: for % change paw edema (in words): dose and time not given; for % change paw edema: 30 mg/kg i.p., * p ≤0.05
[2] = test system: TPA-induced ear edema in mouse ears; test: TPA-induced dermal inflammation in mouse ears; assay type: in vivo, mouse (female Swiss Webster); details: Topical, 30 min after TPA, measured 4 h after TPA, * p ≤0.05
Experimental: 2. TPA-induced dermal inflammation in mouse ears
Female Swiss Webster mice (Buckshire; 8 weeks old) were divided into groups of six. Tetradecanoylphorbol acetate CrPA) was dissolved in acetone at concentrations of 50 mg/ml and 200 μg/ml, respectively. Each mouse received 4 μg/ear of TPA on the right ear. These suboptimal doses of phlogistics were applied by an automatic pipette in 10 μl volumes to both the inner and outer surfaces of the ear. The left ear (control) received acetone or vehicle. […] Drags were given 30 min. after treatment (+30 min) with TPA. Edema measurements were taken with an Oditest calipers. The thickness of the right and left ears were usually measured in traits of 0.01 mm 4 h after TPA application. Ear edema was calculated by subtracting the thickness of the left ear (vehicle control) from right ear (treated ear).

[3] = test compounds, value in parentheses, Table 1, read-out: (IC50) HSF
[4] = test compounds, value in parentheses, Table 1, read-out: (IC50) HP

% Inhibition HSF (Human Synovial PLA2): 26.9% | % Inhibition HP (Human Platelet PLA2): 74%
SMILES: CCCC/C=C\CCCCCCCC(=O)Nc1nc(CC(=O)O)cs1 [Example 9, 2[((Z)-1-Oxo-9-tetradecenyl)amino]-4-thiazoleacetic acid, tromethamine salt]

inhibition at 10 µM (Human Synovial PLA2): 38.5% | inhibition at 10 µM (Human Platelet PLA2): 0.5%
SMILES: CC/C=C\C/C=C\C/C=C\CCCCCCCC(=O)Nc1nc(CC(=O)O)cs1 [Example 7, 2-[((Z,Z,Z)-1-Oxo-9,12,15-octadecatrienyl)amino]-4-thiazole-acetic acid]

inhibition at 50 µM (Human Synovial PLA2): 96% | IC50 (Human Synovial PLA2; [3]): 1.7 µM | inhibition at 50 µM (Human Platelet PLA2): 57.5% | IC50 (Human Platelet PLA2; [4]): 27.9 µM
SMILES: CCCCCCCC/C=C\CCCCCCCC(=O)Nc1nc(CC(=O)O)cs1 [Example 1, 2[((Z)-1-Oxo-9-octadecenyl)amino]-4-thiazoleacetic acid]

inhibition at 10 µM (Human Synovial PLA2): 25.9% | inhibition at 10 µM (Human Platelet PLA2): 36%
SMILES: CCCCCCCC/C=C\CCCCCCCC(=O)Nc1nc(CC(=O)O)cs1 [Example 2, 2-[((Z)-1-Oxo-9-octadecenyl)amino]-4-thizaoleacetic acid, tromethamine (2-amino-2-hydroxymethyl)-1,3-propanediol) salt]

% Inhibition HSF (Human Synovial PLA2): 2% | inhibition at 10 µM (Human Platelet PLA2): 65.6%
SMILES: CCCC/C=C\CCCCCCCC(=O)Nc1nc(CC(=O)O)cs1 [Example 8, 2-[((Z)-1-Oxo-9-tetradecenyl)amino]-4-thiazoleacetic Acid]

inhibition at 10 µM (Human Synovial PLA2): 84.8% | inhibition at 10 µM (Human Platelet PLA2): 74.6%
SMILES: CCCCC/C=C/C/C=C/CCCCCCCC(=O)Nc1nc(CC(=O)O)cs1 [Example 6]

inhibition at 50 µM (Human Synovial PLA2): 86.3% | inhibition at 50 µM (Human Platelet PLA2): 82.7%
SMILES: CCCCC/C=C\C/C=C\CCCCCCCCCC(=O)Nc1nc(CC(=O)O)cs1 [Example 10, 2[((Z,Z)-1-Oxo-11,14-eicosadienyl)amino]-4-thiazoleacetic acid]

Further lines, the compound ahead of its results:

SMILES: CCCCC/C=C\C/C=C\C/C=C\C/C=C\CCCC(=O)O [Arachidonic Acid, reference compound]
IC50 (Human Synovial PLA2; standard drugs, read-out: IC50 Human Synovial PLA2 (standard drugs)): 3.2 µM | IC50 (Human Platelet PLA2; standard drugs, read-out: IC50 Human Platelet PLA2 (standard drugs)): 8.6 µM

SMILES: CCCCCCCCC#CCCCCCCCC(=O)Nc1nc(CC(=O)O)cs1 [Example 5, 2-[(1-Oxo-9-octadecynyl)amino]-4-thiazoleacetic acid, tromethamine salt]
% Inhibition HSF (Human Synovial PLA2): 66% | % Inhibition HP (Human Platelet PLA2): 26%

SMILES: CCCCCCCCC#CCCCCCCCC(=O)Nc1nc(CC(=O)O)cs1 [Example 4, 2-[(1-Oxo-9-octadecynyl)amino]-4-thiazoleacetic acid]
% Inhibition HSF (Human Synovial PLA2): 42.5% | % Inhibition HP (Human Platelet PLA2): 8.9%

SMILES: CC1=C(CC/C(C)=C/CC/C(C)=C/CCC2=CC(=O)OC2O)C(C)(C)CCC1 (centres unmarked) [Luffariellolide, reference compound]
% change paw edema (in words) [1]: Inactive

SMILES: CCCCCCCC/C=C/CCCCCCCC(=O)Nc1nc(CC(=O)O)cs1 [Example 3, 2-[((E)-1-Oxo-9-octadecenyl)amino]-4-thiazoleacetic acid]
inhibition at 50 µM (Human Synovial PLA2): 81.7% | IC50 (Human Synovial PLA2; [3]): 2.1 µM | % Change Edema ([2]; 100 mg/ear (so in the source)): -20% | % change paw edema ([1]; 10 min after PLA2): -33% | % change paw edema ([1]; 30 min after PLA2): -43% | inhibition at 50 µM (Human Platelet PLA2): 70% | IC50 (Human Platelet PLA2; [4]): 25.7 µM

SMILES: c1ccc2nc(COc3cccc4ccccc34)ccc2c1 [WY-47288, reference compound]
% Change Edema ([2]; 1 mg/ear): -40% | % change paw edema (in words) [1]: Inactive
